According to patent US20250195567A1, “COMPOSITIONS FOR REMOVING MICROBIAL BIOFILM OR INHIBITING FORMATION THEREOF” (Prudentix Ltd., priority 2022, published 2025):

What was measured:
[1] = pH of GLDA-PolyP combinations; assay type: physicochemical; details: No PolyP
Procedure: While acidic or basic environment in solution breakdown biofilm, it may be harmful for the human tissue at the periodontal pockets. In this experiment we thus measured the pH levels of the GLDA/PolyP combination that were tested in Example 5.

[2] = tested on: biofilm made of Streptococcus sanguis, Actinomyces naeslundii, Porphyromonas gingivalis, and Fusobacterium nucleatum; experiment: Removal of mature biofilm grown on hydroxyapatite or titanium disks, live/dead staining; assay type: cell-based; details: hydroxyapatite discs, GLDA alone at different concentrations
Procedure: Following assay calibration, biofilm made of Streptococcus sanguis, Actinomyces naeslundii, Porphyromonas gingivalis, and Fusobacterium nucleatum was grown on tooth surfaces (hydroxyapatite (HA) disks) or dental implants surfaces (sandblast acid-etched titanium surfaces, SLA).
The mature biofilms were washed in saline (control) or saline with PolyP (at 8% to 0.2% w/v) for 45 min at 37° C. The biofilm that remained on the disks was stained with live/dead fluorescent stains and analyzed using a florescence microscope. Results are shown as representative microscopic images (FIG. 1), and as a quantification of the florescence intensity in relative florescence units (RFU) (FIGS. 2-3).
In this experiment, the ability of the chelating agent GLDA to clear biofilm, either alone or in combination with PolyP at 0.02% and 0.5%, was tested. As described in Example 4, biofilm was grown and treated with the different solutions, and the residual biofilm was stained and quantified. The results are shown as a quantification of the florescence intensity in relative florescence units (RFU) (FIGS. 4-5).

“Tetrasodium N,N-bis(carboxymethyl)-L-glutamate [GLDA]” gave a pH ([1]; GLDA 0.05%) of 7, a pH ([1]; GLDA 0.3%) of 9.6 and a pH ([1]; GLDA 1%) of 11.5. For the same substance, the “residual biofilm (fluorescence intensity)” value [2] was “dose dependent efficacy”.
